Values after ≈ are worked out from the molar mass of the structure shown.
What was measured:
[1] = test system: Human lung cancer NCI-H460 cells; assay: In vitro cell proliferation suppressive activity (MTT method); type: cell-based; settings: 3 days culture; for IC50: Homo sapiens, 72 h, read-out: IC50 (concentration at which 50% of the cell proliferation was suppressed), NCI-H460 cells
Experimental: (§1) Proliferation suppressive activities of ellagitannin against various kinds of cancer cell lines were measured in the following manner.
(§2) Each of the following cancer cell lines was placed in a 96-well plate at 5×10^3 cell/100 μL per well using a DMEM medium (product of NISSUI PHARMACEUTICAL CO., LTD.) containing FBS (product of Sigma-Aldrich Co.) in an amount of 10 liquid amount %, and was cultured for 24 hours at 37° C. in an atmosphere of 5% CO2, whereby the cells were allowed to adhere to the plate completely.
(§3) Each of the following ellagitannins was added thereto so as to have final concentrations of 100 μg/mL, 50 μg/mL, 25 μg/mL, 12.5 μg/mL, 6.25 μg/mL, 3.13 μg/mL, 1.56 μg/mL, and 0.78 μg/mL, followed by culturing for 3 days at 37° C. in an atomosphere of 5% CO2.
(§4) In addition, as comparative controls, the 96-well plates to which the cancer cells had been allowed to adhere were cultured for 3 days at 37° C. in an atomosphere of 5% CO2 without addition of ellagitannin.
(§5) After the culturing for 3 days, cell proliferation was measured using the MTT method. The MTT method was performed as follows. Specifically, 10 μL of an MTT solution (a PBS solution containing MTT (3-(4,5-dimethylthiazol-2-yl)-2,5-diphenyltetrazolium bromide) at a concentration of 5 mg/mL) was added to each well and cultured for 4 hours. The formed formazan products were dissolved by adding 100 μL of a 20% SDS solution to each well, and measured for absorbance at 570 nm using LABSYSTEMS MULTISCAN MS (product of DS Pharma Biomedical Co., Ltd.).
(§6) The absorbance of the system involving the addition of the ellagitannin was indicated as “A” and the absorbance of the system of the comparative controls was indicated as “B”, and cell proliferation inhibitory rate (%) was calculated from the following formula (1).
(§7) Cell proliferation inhibitory rate(%)={(B−A)/B}×100 Formula (1)
(§8) Next, the cell proliferation inhibitory rate was used to determine a concentration at which 50% of the cell proliferation was suppressed (IC50 value).

[2] = test system: Human osteosarcoma SJSA-1 cells; assay: as above; type: cell-based; settings: 3 days culture; for IC50: Homo sapiens, 72 h, read-out: IC50 (concentration at which 50% of the cell proliferation was suppressed), SJSA-1 cells
Experimental: as §1, §2, §3, §4, §5, §6, §7, §8

[3] = test system: human osteosarcoma SJSA-1 cells; assay: Antitumor activity-2 in cancer cell-transplanted mice (Test Example 2-2); type: in vivo, mouse; settings: nude mice transplanted with SJSA-1 cells; 12.5, 6.25 or 3.13 mg/kg, tail vein, twice a week; FIG. 3
Excerpt: Eugeniin (product of […] Science Co., Ltd.) was used as the ellagitannin and was studied for antitumor activity in the following manner.

[4] = test system: human lung cancer NCI-H460 cells; assay: Antitumor activity-1 in cancer cell-transplanted mice (Test Example 2-1); type: in vivo, mouse; settings: nude mice transplanted with NCI-H460 cells; 12.5 mg/kg, tail vein, twice a week from one week after transplantation; FIG. 2
Experimental: (§9) The antitumor effect of the geraniin was evaluated by observing the proliferation state of the tumor after the transplantation of the cells. Specifically, a longer diameter and a shorter diameter of each tumor were meatured with a caliper, and a tumor volume was measured from the following formula (2). Its average and standard deviation were obtained to determine the effect in the geraniin-administration groups in comparison to the comparative control groups.
(§10) Tumore volume=longer diameter×(shorter diameter)^2÷2 Formula (2)

[5] = test system: human osteosarcoma SJSA-1 cells; assay: as above; type: in vivo, mouse; settings: nude mice transplanted with SJSA-1 cells; 12.5 mg/kg, tail vein, twice a week from one week after transplantation; FIG. 1
Experimental: as §9, §10

casuarictin
IC50 (concentration at which 50% of the cell proliferation was suppressed), NCI-H460 cells [1]: 35 mg/L
IC50 (concentration at which 50% of the cell proliferation was suppressed), SJSA-1 cells [2]: 61 mg/L

O=C(O[C@@H]1O[C@@H]2COC(=O)c3cc(O)c(O)c(O)c3-c3c(cc(O)c(O)c3O)C(=O)O[C@H]2[C@H](OC(=O)c2cc(O)c(O)c(O)c2)[C@H]1OC(=O)c1cc(O)c(O)c(O)c1)c1cc(O)c(O)c(O)c1 [Eugeniin, eugeniin]
IC50 [1]: 5.6 mg/L (≈ 5.97 µM)
IC50 [2]: 18 mg/L (≈ 19.2 µM)
tumor volume compared with the comparative control group (Saline) [3]: significantly smaller

O=C(OC1OC2COC(=O)c3cc(O)c(O)c(O)c3-c3c(cc(O)c(O)c3O)C(=O)OC2C(O)C1O)c1cc(O)c(O)c(O)c1 (stereo not drawn) [Strictinin, strictinin]
IC50 [1]: 33 mg/L (≈ 52 µM)
IC50 [2]: ≥ 110 mg/L

O=C(OC1OC2COC(=O)c3cc(O)c(O)c(O)c3-c3c(cc(O)c(O)c3O)C(=O)OC2C(OC(=O)c2cc(O)c(O)c(O)c2)C1O)c1cc(O)c(O)c(O)c1 (stereo not drawn) [1,3-di-O-galloyl-4,6-O-hexahydroxydiphenoyl glucose]
IC50 [1]: 11 mg/L (≈ 14 µM)
IC50 [2]: 41 mg/L (≈ 52.1 µM)

O=C1O[C@H]2[C@@H]3OC(=O)c4cc(O)c(O)c(O)c4-c4c(cc(O)c(O)c4O)C(=O)OC[C@H]2O[C@@H](OC(=O)c2cc(O)c(O)c(O)c2)[C@@H]3OC(=O)c2cc(O)c(O)c3c2[C@@H]2C1=CC(=O)[C@](O)(O3)C2(O)O [Geraniin, geraniin]
IC50 [1]: 40 mg/L (≈ 42 µM)
IC50 [2]: 100 mg/L (≈ 105 µM)
tumor volume compared with the comparative control group (Saline) [4]: significantly smaller
tumor volume compared with the comparative control group (Saline) [5]: significantly smaller

O=C(OC1C(O)OC2COC(=O)c3cc(O)c(O)c(O)c3-c3c(cc(O)c(O)c3O)C(=O)OC2C1OC(=O)c1cc(O)c(O)c(O)c1)c1cc(O)c(O)c(O)c1 (stereo not drawn) [Tellimagrandin I, tellimagrandin I]
IC50 [1]: 32 mg/L (≈ 40.7 µM)
IC50 [2]: 46 mg/L (≈ 58.5 µM)

— US20150283159A1, “ANTICANCER AGENT, AND COMBINATION USE ANTICANCER AGENT” (Microbial Chemistry Research Foundation, priority 2012, published 2015)
